Entries after “also recorded” stand apart in the source; their conditions may differ.
Key:
DU145 cells [1] = assay: focal adhesion in DU145 cells; format: cell-based, human; settings: FIG. 55
HT29 cells [2] = assay: cell growth (cell viability) in HT29 cells; format: cell-based
PC-3 cells [3] = assay: focal adhesion in PC-3 cells; format: cell-based, human; settings: FIG. 56
HT29 cells [4] = assay: calcium mobilization assay in colon cancer HT29 cells; format: cell-based; settings: HT29 cells (only express LPA2), FIGS. 21-22
Procedure: The procedures for these calcium mobilization assays are as followed: OVCAR3 cells and PC-3 cells were cultured in RPMI 1640 medium with 10% FBS (fetal bovine serum). HT29 cells were cultured in DMEM (high glucose) medium with 10% FBS. All cells were cultured at about 37° C. in a humidified atmosphere with 5% CO2. After starvation in serum-free medium for about 12-24 hours, cells were harvested and loaded with about 1 μM of Indo-1 AM in serum-free medium for about 45 min at 37° C. Cells were washed in PBS and resuspended at 2×10^6 cells/ml in a [Ca^2+]i assay buffer (Sodium chloride, NaCl, about 140 mM, potassium chloride, KCl, about 2 mM, magnesium chloride, MgCl2, about 1 mM, calcium chloride, CaCl2, about 2 mM, in about 25 mM HEPES buffer at pH 7.4 with about 10 mM of glucose). Cytoplasmic [Ca^2+]i was determined at an excitation wavelength of about 331 nm and an emission wavelength of 410 nm using a fluorescence spectrophotometer (Hitachi, F-4000). Approximately 3×10^6 cells were used for [Ca^2+]l determination in a stirred quartz cuvette kept at about 37° C. OMPT or 18:1 LPA was dissolved in about 0.1% BSA/PBS solution and applied immediately to the cells. To test other LPA derivatives of the invention, cells were exposed to the derivatives for about 3 minutes or for a period of various times in time course related experiments before a LPA agonist, such as 18:1 LPA, OMPT, or other LPAs was applied into the cuvette.
The concentration of calcium mobilization giving the half-maximal response (EC50) was obtained from the concentration-response curve fitted to a sigmoidal logistic equation, with the maximal calcium response set to 100% using the GraphPad Prism. Maximal response value is expressed as mean +/−s.e.m. EC50 value is expressed with 95% confidence.

DU145 cells [5] = assay: calcium mobilization assay in androgen insensitive prostate cancer DU145 cells; format: cell-based, human
PC-3 cells [6] = assay: cell growth (cell viability) in PC-3 cells; format: cell-based, human; settings: for inhibition of cell growth (cell viability): PC-3
DU145 cells [7] = assay: cell migration of DU145 cells; format: cell-based, human
DU145 cells [8] = assay: cell growth (cell viability) in DU145 cells; format: cell-based, human
HT29 cells [9] = assay: lamellipodia formation in colon cancer HT29 cells; format: cell-based; settings: for inhibition of 14:0 LPA-induced lamellipodia formation / inhibition of 1% FBS-induced lamellipodia formation / inhibition of 10% FBS-induced lamellipodia formation: HT29
PC-3 cells [10] = assay: lamellipodia formation in PC-3 cells; format: cell-based, human; settings: 30 μM

## CCCCCCCCCCCCCCCCCC(=O)OC[C@@H](O)COP(=O)(O)OCC(O)CO (mixture of isomers) [18:0 LPG, 1-stearoyl-2-hydroxy-sn-glycero-3-[phospho-rac-(1-glycerol)]]
DU145 cells [1]
  reduction of focal adhesion: reduce focal adhesion
HT29 cells [2]; FBS (1%), FIG. 36
  inhibition of cell growth (cell viability): inhibition of cell growth (cell viability) at high concentrations
HT29 cells [2]; FBS (10%), FIG. 36
  inhibition of cell growth (cell viability): but not in the presence of high concentrations of FBS (10%)
HT29 cells [2]; in the presence of 10 μM of 14:0 LPA, FIG. 35
  inhibition of cell growth (cell viability): inhibition of cell growth (cell viability) at high concentrations
PC-3 cells [3]
  reduction of focal adhesion: reduce focal adhesion
HT29 cells [4]
  inhibition of (18:1) LPA-induced calcium mobilization: inhibited LPA-induced calcium mobilization; also recorded: effective inhibitors/antagonists
DU145 cells [5]
  inhibition of 14:0 LPA-induced calcium mobilization: inhibited calcium mobilization
PC-3 cells [6]; in the presence of 10 μM of 18:1 LPA, FIGS. 45-47
  inhibition of cell growth (cell viability): inhibition of cell growth (cell viability) at high concentrations
PC-3 cells [6]; without LPA, FIGS. 46-47
  inhibition of cell growth (cell viability): inhibition of cell growth (cell viability) at high concentrations
PC-3 cells [6]; PC-3 cells
  reduction of cell viability / cell growth: reduced cell viability
DU145 cells [7]
  reduction of cell migration: could reduce cell migration
DU145 cells [8]
  reduction of cell viability / cell growth: reduced cell viability
HT29 cells [9]; HT29, serum-free medium, 10 and 30 μM, FIGS. 24-25
  inhibition of lamellipodia: inhibits lamellipodia in HT29 cells in a concentration dependent manner
HT29 cells [9]; 10 μM, FIG. 27
  inhibition of 14:0 LPA-induced lamellipodia formation: inhibition of 14:0 LPA-induced LPA2 receptor mediated lamellipodia formation
HT29 cells [9]; 10 μM, FIG. 30
  inhibition of 1% FBS-induced lamellipodia formation: inhibition of 1% FBS-induced LPA2 receptor mediated lamellipodia formation
HT29 cells [9]; 10 μM, FIG. 33
  inhibition of 10% FBS-induced lamellipodia formation: no inhibition
HT29 cells [9]; 30 μM, FIG. 28
  inhibition of 14:0 LPA-induced lamellipodia formation: inhibition of 14:0 LPA-induced LPA2 receptor mediated lamellipodia formation
HT29 cells [9]; 30 μM, FIG. 31
  inhibition of 1% FBS-induced lamellipodia formation: inhibition of 1% FBS-induced LPA2 receptor mediated lamellipodia formation
HT29 cells [9]; 30 μM, FIG. 34
  inhibition of 10% FBS-induced lamellipodia formation: no inhibition
PC-3 cells [10]; PC-3, serum-free, FIGS. 38-40
  effect on spontaneously activated lamellipodia: inhibit spontaneously activated lamellipodia
PC-3 cells [10]; PC-3, FIGS. 42-44
  inhibition of 18:1 LPA-induced lamellipodia formation: inhibition of 18:1 LPA-induced LPA2 receptor mediated lamellipodia formation

— patent publication US20080071116A1, “Modulators of Lysophosphatidic Acid (Lpa) Signaling and the Use Thereof” (THE BOARD OF REGENTS OF THE UNIVERSITY OF TEXAS SYSTEM, priority 2004, published 2008)
